This passage reports Activity and inhibition results from ChEMBL document CHEMBL5584225, “Discovery of an efficacious KDM5B PROTAC degrader GT-653 up-regulating IFN response genes in prostate cancer” (Eur J Med Chem, 2024).

Data set [1] addresses T1, Protein cereblon/Lysine-specific demethylase 5B (Homo sapiens) (UniProt Q96SW2+Q9UGL1). The data set is described as follows: PROTAC activity at CRBN/KDM5B in human 22Rv1 cells assessed as induction of KDM5B degradation at 10 uM incubated for 12 hrs by Western blot analysis relative to control. It is filed as cell-based. On the technique in general: Immunoblotting shows a protein as a band on a membrane.

Data set [2] deals with Lysine-specific demethylase 5B (Homo sapiens) (UniProt Q9UGL1). The data set is described as follows: Inhibition of KDM5B in human 22Rv1 cells assessed as upregulation of H3K4me3 level at 20 uM incubated for 24 hrs by Western blot analysis. It is filed as cell-based.
The target in data set [3] is Protein cereblon/Lysine-specific demethylase 5A (Homo sapiens) (UniProt P29375+Q96SW2). The data set is described as follows: Induction of KDM5A-CRBN (unknown origin) protein protein interaction assessed as ternary complex formation. It is filed as protein assay.
In data set [4] the target is Protein cereblon/Lysine-specific demethylase 5C (Homo sapiens) (UniProt P41229+Q96SW2). The data set is described as follows: Induction of KDM5C-CRBN (unknown origin) protein protein interaction assessed as ternary complex formation. In kind it is protein assay.
In data set [5] the target is T1, Protein cereblon/Lysine-specific demethylase 5B (Homo sapiens). As to the kind of experiment: PROTAC activity at CRBN/KDM5B in human 22Rv1 cells assessed as reduction in KDM5B level at 0 to 20 uM incubated for 24 hrs by Western blot analysis. In kind it is cell-based. To be noted: dose 0-20 µM.
The target is the same in data set [6]. The data set is described as follows: PROTAC activity at CRBN/KDM5B in human 22Rv1 cells assessed as increase in H3K4me3 level at 0 to 20 uM incubated for 24 hrs by Western blot analysis. It is filed as cell-based. The settings on record: dose 0-20 µM.
Data set [7] shares this target. The data set is described as follows: PROTAC activity at CRBN/KDM5B in human 22Rv1 cells assessed as reduction in KDM5B level by RT-qPCR analysis. In kind it is cell-based. In general terms: In qPCR the cycle at which signal appears reflects the starting amount.
For data set [8] the target is unchanged. The data set is described as follows: PROTAC activity at CRBN/KDM5B in human 22Rv1 cells assessed as increase in H3K4me3 level by […] analysis. It is filed as cell-based.
Data set [9] relates to CWR22R. The data set is described as follows: Effect on KDM5B transcription in human 22Rv1 cells at 0 to 20 uM measured after 24 hrs by RT-qPCR analysis. It is filed as functional, cell-based. The settings on record: dose 0-20 µM.
The target of data set [10] is T1, Protein cereblon/Lysine-specific demethylase 5B (Homo sapiens). The data set is described as follows: PROTAC activity at CRBN/KDM5B in human 22Rv1 cells assessed as induction of KDM5B degradation at 10 uM in presence of cycloheximide measured after 2 to 12 hrs by Western blot analysis. To be noted: time 2-12 hrs. In kind it is cell-based.
For data set [11], the target named is Lysine-specific demethylase 5B (Homo sapiens) (UniProt Q9UGL1). The data set is described as follows: Induction of FLAG-tagged KDM5B degradation in HEK293T cells overexpressing KDM5B assessed as increase in ubiquitinated FLAG-KDM5B level by immunoprecipitation analysis. In kind it is cell-based.
The target of data set [12] is T1, Protein cereblon/Lysine-specific demethylase 5B (Homo sapiens). As to the kind of experiment: Induction of KDM5B-CRBN protein protein interaction in human 22Rv1 cells at 20 uM incubated for 12 hrs in presence of MG-132 by Western blot analysis. In kind it is cell-based.
For data set [13] the target is unchanged. The data set is described as follows: PROTAC activity at CRBN/KDM5B in human 22Rv1 cells assessed as induction of KDM5B degradation at 5 uM in presence of CPI-455 measured after 24 hrs by Western blot analysis. In kind it is cell-based.
The target is the same in data set [14]. As to the kind of experiment: PROTAC activity at CRBN/KDM5B in human 22Rv1 cells assessed as induction of KDM5B degradation at 5 uM in presence of thalidomide measured after 24 hrs by Western blot analysis. It is filed as cell-based.
Data set [15] shares this target. As to the kind of experiment: PROTAC activity at CRBN/KDM5B in human 22Rv1 cells assessed as induction of KDM5B degradation at 5 uM in presence of MG-132 measured after 24 hrs by Western blot analysis. In kind it is cell-based.
Data set [16] has as its system CWR22R. As to the kind of experiment: Cytotoxicity against human 22Rv1 cells assessed as reduction in cell proliferation at 0 to 20 uM measured after 24 to 48 hrs by MTS assay. It is filed as toxicity, cell-based. To be noted: dose lower 0 µM, time lower 24 hrs, dose upper 20 µM, time upper 48 hrs. On the technique in general: Tetrazolium dyes change colour on reduction, which living cells bring about.

Data set [17] deals with Lysine-specific demethylase 5B (Homo sapiens) (UniProt Q9UGL1). The data set is described as follows: Inhibition of KDM5B non-catalytic activity in human 22Rv1 cells assessed as inhibition of KDM5B binding to SETDB1 by measuring reduction in H3K9me3 level at 20 uM incubated for 24 hrs by Co-IP analysis. It is filed as cell-based.
Data set [18] shares this target. The data set is described as follows: Inhibition of KDM5B in human 22Rv1 cells assessed as upregulation of HHLA3 mRNA expression at 20 uM incubated for 24 hrs by RT-qPCR analysis. It is filed as cell-based.
Data set [19] has the same target. As to the kind of experiment: Inhibition of KDM5B in human 22Rv1 cells assessed as upregulation of IFI35 mRNA expression at 20 uM incubated for 24 hrs by RT-qPCR analysis. In kind it is cell-based.
The target is the same in data set [20]. As to the kind of experiment: Inhibition of KDM5B in human 22Rv1 cells assessed as upregulation of IFI27L2 mRNA expression at 20 uM incubated for 24 hrs by RT-qPCR analysis. In kind it is cell-based.
Data set [21] has the same target. As to the kind of experiment: Inhibition of KDM5B in human 22Rv1 cells assessed as upregulation of IRF3 mRNA expression at 20 uM incubated for 24 hrs by RT-qPCR analysis. In kind it is cell-based.
In data set [22] the test system is Protein cereblon/Lysine-specific demethylase 5B (Homo sapiens), Q96SW2+Q9UGL1 [L685W]. As to the kind of experiment: PROTAC activity at CRBN/KDM5B L685W mutant in KDM5B-deficient human 22Rv1 cells harboring reintroduced KDM5B L685W assessed as induction of protein degradation at 20 uM incubated for 24 hrs by Western blot analysis. In kind it is cell-based.
The test system of data set [23] is CWR22R. The data set is described as follows: Downregulation of KDM5B-induced H3K9me3 level in KDM5B-deficient human 22Rv1 cells harboring reintroduced KDM5B L685W at 20 uM incubated for 24 hrs by Western blot analysis. In kind it is functional, cell-based.
For data set [24], the system named is CWR22R. As to the kind of experiment: Upregulation of HHLA3 mRNA expression in KDM5B-deficient human 22Rv1 cells harboring reintroduced KDM5B L685W at 20 uM incubated for 24 hrs by RT-qPCR analysis. It is filed as functional, cell-based.
The test system of data set [25] is CWR22R. As to the kind of experiment: Upregulation of IFI35 mRNA expression in KDM5B-deficient human 22Rv1 cells harboring reintroduced KDM5B L685W at 20 uM incubated for 24 hrs by RT-qPCR analysis. In kind it is functional, cell-based.
For data set [26], the system named is CWR22R. The data set is described as follows: Upregulation of IFI27L2 mRNA expression in KDM5B-deficient human 22Rv1 cells harboring reintroduced KDM5B L685W at 20 uM incubated for 24 hrs by RT-qPCR analysis. In kind it is functional, cell-based.
The subject of data set [27] is CWR22R. The data set is described as follows: Upregulation of IRF3 mRNA expression in KDM5B-deficient human 22Rv1 cells harboring reintroduced KDM5B L685W at 20 uM incubated for 24 hrs by RT-qPCR analysis. It is filed as functional, cell-based.
Data set [28] concerns the target Lysine-specific demethylase 5B (Homo sapiens) (UniProt Q9UGL1). As to the kind of experiment: Inhibition of KDM5B (unknown origin) assessed as increase in H3K4me3 level.

Structures are written as SMILES. Calls of active or inactive are those of the source. No cut-off for these calls is given here.

Sequence of Lysine-specific demethylase 5B (Homo sapiens) (Q9UGL1 whole entry): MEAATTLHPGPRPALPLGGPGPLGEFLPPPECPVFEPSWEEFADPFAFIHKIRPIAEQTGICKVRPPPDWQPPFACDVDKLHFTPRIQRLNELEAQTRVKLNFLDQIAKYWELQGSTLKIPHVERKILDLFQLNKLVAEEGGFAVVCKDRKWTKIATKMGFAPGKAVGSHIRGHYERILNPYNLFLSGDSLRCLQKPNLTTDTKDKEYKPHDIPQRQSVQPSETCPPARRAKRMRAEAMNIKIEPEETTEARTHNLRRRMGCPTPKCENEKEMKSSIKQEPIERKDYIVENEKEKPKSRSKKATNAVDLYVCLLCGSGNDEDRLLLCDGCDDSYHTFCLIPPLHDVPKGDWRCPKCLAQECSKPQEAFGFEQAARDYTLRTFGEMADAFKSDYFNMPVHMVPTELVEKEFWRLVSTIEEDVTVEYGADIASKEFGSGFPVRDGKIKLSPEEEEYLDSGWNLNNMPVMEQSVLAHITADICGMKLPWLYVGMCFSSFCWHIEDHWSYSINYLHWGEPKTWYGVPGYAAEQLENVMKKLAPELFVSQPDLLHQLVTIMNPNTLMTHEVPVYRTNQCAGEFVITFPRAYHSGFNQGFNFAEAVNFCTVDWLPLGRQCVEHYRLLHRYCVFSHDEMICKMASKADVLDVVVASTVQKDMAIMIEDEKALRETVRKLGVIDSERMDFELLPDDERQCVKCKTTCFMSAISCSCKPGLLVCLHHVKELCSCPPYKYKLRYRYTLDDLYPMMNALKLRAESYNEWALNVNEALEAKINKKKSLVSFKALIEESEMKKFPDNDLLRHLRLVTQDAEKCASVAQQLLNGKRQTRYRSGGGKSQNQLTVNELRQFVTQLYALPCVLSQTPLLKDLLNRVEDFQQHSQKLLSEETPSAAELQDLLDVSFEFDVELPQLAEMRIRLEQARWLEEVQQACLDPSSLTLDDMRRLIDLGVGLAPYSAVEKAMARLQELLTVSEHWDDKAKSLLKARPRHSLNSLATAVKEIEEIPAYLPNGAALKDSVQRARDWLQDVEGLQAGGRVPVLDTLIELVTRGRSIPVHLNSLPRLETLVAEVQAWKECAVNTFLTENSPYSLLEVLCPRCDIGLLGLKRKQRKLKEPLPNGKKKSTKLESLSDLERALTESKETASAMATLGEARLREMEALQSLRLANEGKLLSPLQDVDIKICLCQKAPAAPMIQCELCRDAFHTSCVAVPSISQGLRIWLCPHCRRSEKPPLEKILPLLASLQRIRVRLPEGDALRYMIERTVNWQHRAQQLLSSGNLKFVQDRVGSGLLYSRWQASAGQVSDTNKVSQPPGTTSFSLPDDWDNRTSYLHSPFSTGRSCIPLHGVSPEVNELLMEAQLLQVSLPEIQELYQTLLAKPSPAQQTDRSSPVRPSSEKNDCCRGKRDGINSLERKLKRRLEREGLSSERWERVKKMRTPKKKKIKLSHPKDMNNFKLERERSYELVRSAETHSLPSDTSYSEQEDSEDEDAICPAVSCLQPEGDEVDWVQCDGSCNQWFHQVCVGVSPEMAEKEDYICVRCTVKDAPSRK
T1 sequence (Q96SW2 whole entry, looked up): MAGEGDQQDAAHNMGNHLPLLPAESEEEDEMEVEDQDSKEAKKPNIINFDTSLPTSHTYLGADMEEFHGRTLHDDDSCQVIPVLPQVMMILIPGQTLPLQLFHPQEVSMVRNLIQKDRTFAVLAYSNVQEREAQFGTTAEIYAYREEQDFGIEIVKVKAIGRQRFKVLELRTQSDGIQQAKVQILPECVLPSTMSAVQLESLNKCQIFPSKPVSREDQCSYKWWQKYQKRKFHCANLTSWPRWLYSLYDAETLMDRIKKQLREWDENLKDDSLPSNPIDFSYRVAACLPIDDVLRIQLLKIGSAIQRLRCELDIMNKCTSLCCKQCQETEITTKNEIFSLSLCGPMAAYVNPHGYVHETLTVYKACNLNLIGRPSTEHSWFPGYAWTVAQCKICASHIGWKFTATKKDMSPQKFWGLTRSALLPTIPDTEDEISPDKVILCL
T1 sequence (Q9UGL1 whole entry, looked up): as the sequence (Q9UGL1 whole entry) above
Sequence of Protein cereblon/Lysine-specific demethylase 5C (Homo sapiens) (P41229 whole entry, looked up): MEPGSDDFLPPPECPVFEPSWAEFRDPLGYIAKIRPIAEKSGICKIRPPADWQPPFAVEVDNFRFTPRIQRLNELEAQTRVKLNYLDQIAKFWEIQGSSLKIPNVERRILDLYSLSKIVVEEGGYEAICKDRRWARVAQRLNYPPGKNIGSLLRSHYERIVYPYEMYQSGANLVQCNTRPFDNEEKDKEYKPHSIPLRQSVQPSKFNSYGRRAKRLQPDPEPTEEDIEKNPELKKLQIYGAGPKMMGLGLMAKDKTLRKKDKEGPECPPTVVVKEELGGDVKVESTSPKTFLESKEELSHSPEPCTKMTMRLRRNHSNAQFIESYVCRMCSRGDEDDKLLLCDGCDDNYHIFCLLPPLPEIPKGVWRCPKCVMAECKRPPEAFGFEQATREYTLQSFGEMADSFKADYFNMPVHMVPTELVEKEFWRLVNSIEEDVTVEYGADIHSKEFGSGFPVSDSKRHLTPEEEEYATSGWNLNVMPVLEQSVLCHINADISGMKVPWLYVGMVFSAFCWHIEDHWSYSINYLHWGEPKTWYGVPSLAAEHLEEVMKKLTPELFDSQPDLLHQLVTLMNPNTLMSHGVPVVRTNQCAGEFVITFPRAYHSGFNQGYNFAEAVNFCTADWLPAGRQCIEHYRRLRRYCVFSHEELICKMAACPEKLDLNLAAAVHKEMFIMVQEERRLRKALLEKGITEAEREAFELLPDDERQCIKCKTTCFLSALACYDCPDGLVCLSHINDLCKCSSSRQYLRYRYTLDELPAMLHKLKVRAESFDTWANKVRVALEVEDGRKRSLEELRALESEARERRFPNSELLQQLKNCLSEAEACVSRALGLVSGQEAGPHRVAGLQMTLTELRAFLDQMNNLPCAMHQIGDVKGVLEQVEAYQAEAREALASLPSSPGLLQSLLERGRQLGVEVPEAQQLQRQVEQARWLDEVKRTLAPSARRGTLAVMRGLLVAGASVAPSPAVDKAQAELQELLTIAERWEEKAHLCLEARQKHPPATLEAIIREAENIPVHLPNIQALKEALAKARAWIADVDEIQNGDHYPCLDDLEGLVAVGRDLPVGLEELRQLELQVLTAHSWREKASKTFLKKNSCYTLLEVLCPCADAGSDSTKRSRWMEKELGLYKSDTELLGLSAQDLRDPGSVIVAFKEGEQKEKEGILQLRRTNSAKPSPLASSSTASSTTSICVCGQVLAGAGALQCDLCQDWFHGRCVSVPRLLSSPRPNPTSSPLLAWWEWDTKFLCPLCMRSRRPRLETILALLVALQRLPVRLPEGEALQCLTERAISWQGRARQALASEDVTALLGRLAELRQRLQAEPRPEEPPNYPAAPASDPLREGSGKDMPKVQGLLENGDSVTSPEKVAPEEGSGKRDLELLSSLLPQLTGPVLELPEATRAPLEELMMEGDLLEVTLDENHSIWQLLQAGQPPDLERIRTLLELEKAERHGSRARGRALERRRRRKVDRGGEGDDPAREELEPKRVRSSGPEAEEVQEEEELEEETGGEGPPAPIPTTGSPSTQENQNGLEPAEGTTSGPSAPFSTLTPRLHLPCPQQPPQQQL
Sequence of Protein cereblon/Lysine-specific demethylase 5C (Homo sapiens) (Q96SW2 whole entry, looked up): as the sequence (Q96SW2 whole entry, looked up) above

As to `N#Cc1cnn2c(=O)cc(-c3ccc(OCCNC(=O)CCCCCNc4cccc5c4C(=O)N(C4CCC(=O)NC4=O)C5=O)cc3)[nH]c12` (centres undefined), in [1], the Activity is 10.8%.

For the compound `CC(C)c1c(-c2ccccc2)[nH]c2c(C#N)cnn2c1=O`, the inhibition result in [2] was “Active”.

`N#Cc1cnn2c(=O)cc(-c3ccc(OCCNC(=O)CCOCCOCCOCCNc4cccc5c4C(=O)N(C4CCC(=O)NC4=O)C5=O)cc3)[nH]c12` (centres undefined): in data set [1], the Activity was found to be 0%.

As to `N#Cc1cnn2c(=O)cc(-c3ccc(OCCNC(=O)CCOCCOCCNc4cccc5c4C(=O)N(C4CCC(=O)NC4=O)C5=O)cc3)[nH]c12` (centres undefined), the Activity in data set [1] turned out to be 0%.

For `N#Cc1cnn2c(=O)cc(-c3ccc(OCCNC(=O)CCCNc4cccc5c4C(=O)N(C4CCC(=O)NC4=O)C5=O)cc3)[nH]c12` (centres undefined), in data set [1], the Activity is 0%.

Consider `N#Cc1cnn2c(=O)cc(-c3ccc(OCCNC(=O)CCOCCOCCOCCOCCNc4cccc5c4C(=O)N(C4CCC(=O)NC4=O)C5=O)cc3)[nH]c12` (centres undefined), for which, in data set [1], the Activity came out at 0%.

With `N#Cc1cnn2c(=O)cc(-c3ccc(OCCNC(=O)CCOCCOc4cccc5c4C(=O)N(C4CCC(=O)NC4=O)C5=O)cc3)[nH]c12` (centres undefined), in data set [1], the Activity stood at 6.31%.

For the compound `N#Cc1cnn2c(=O)cc(-c3ccc(OCC(=O)NCCOCCOc4cccc5c4C(=O)N(C4CCC(=O)NC4=O)C5=O)cc3)[nH]c12` (centres undefined), the Activity was 68.3% in data set [1] and “Non-Toxic” in [16]. Moreover, the result in data set [3], in data set [4], in data set [9], in [13], in data set [14] and in data set [15] was inactive. In addition, the result in [5], in data set [6], in [7], in data set [8], in data set [10] and in data set [11] was Active. Besides, the outcome in data set [12], in data set [22], in [23], in [24], in [25] and in [26] was Active. In addition, the outcome in [27] was Active. Also, the inhibition result in [2], in [17], in data set [18], in [19], in data set [20] and in data set [21] was “Active” throughout.

In the case of `N#Cc1cnn2c(=O)cc(-c3ccc(OCC(=O)NCCOCCNC(=O)COc4cccc5c4C(=O)N(C4CCC(=O)NC4=O)C5=O)cc3)[nH]c12` (centres undefined), the Activity in data set [1] amounted to 0%.

As for `N#Cc1cnn2c(=O)cc(-c3ccc(OCCNC(=O)CCOCCNc4cccc5c4C(=O)N(C4CCC(=O)NC4=O)C5=O)cc3)[nH]c12` (centres undefined), in data set [1], the Activity was 5.27%.

Turning to `N#Cc1cnn2c(=O)cc(-c3ccc(OCC(=O)NCCOCCNC(=O)CNc4cccc5c4C(=O)N(C4CCC(=O)NC4=O)C5=O)cc3)[nH]c12` (centres undefined), the Activity in data set [1] came out at 0%.

Regarding `CC(C)(C)OC(=O)NCCOc1ccc(-c2cc(=O)n3ncc(C#N)c3[nH]2)cc1`, the inhibition entry in [28] is “Active”.

In the case of `CC(C)(C)OC(=O)COc1ccc(-c2cc(=O)n3ncc(C#N)c3[nH]2)cc1`, the inhibition result in [28] is “Active”.
